Measured values from patent US20240374631A1, “A COMPOSITION FOR IMPROVING GUT MICROBIOTA, BEHAVIOURAL PATTERN, ALPHA-SYNUCLEIN LEVELS, SLEEP PATTERN AND/OR SERUM MELATONIN” (GN Corporation Co Ltd, priority 2021, published 2024).

Test system: gut microbiota
Experiment: Gut microbiome analysis (16S rRNA sequencing of fecal samples) in STAM model of NASH
Assay type: in vivo, C57BL/6J mice
Text: The study is reported in accordance with Animal Research: Reporting of In Vivo Experiments (ARRIVE) guidelines. C57BL/6J mice were obtained from Japan SLC, Inc. (Japan). All animals used in this study were cared for under the following guidelines: Act on Welfare and Management of Animals (Ministry of the Environment, Japan, Act No. 105 of Oct. 1, 1973), standards relating to the care and management of laboratory animals and relief of pain (Notice No. 88 of the Ministry of the Environment, Japan, Apr. 28, 2006) and the guidelines for proper conduct of animal experiments (Science Council of Japan, Jun. 1, 2006). Protocol approvals were obtained from SMC Laboratories, Japan's IACUC (Study reference no: […] Mice were maintained in a specific pathogen-free (SPF) facility under controlled conditions of temperature (23±3° C.), humidity (50±20%), lighting (12-hour artificial light and dark cycles; light from 8:00 to 20:00) and air exchange. The STAM model of NASH was induced as previously described [D10]. Mice were given a single subcutaneous injection of 200 μg streptozotocin (STZ, Sigma-Aldrich, USA) solution 2 days after birth and fed with a high-fat diet (HFD, 57 kcal % fat, Cat #HFD32, CLEA Japan, Inc., Japan) from 4-9 weeks of age. All mice develop liver steatosis and diabetes and at […] mice had established steatohepatitis, histologically. Studygroups: There were five study groups, described below. Eight mice were included in each study group. Eight NASH mice were orally administered vehicle supplemented with AFO-202 Beta Glucan at a dose of 1 mg/kg in a volume of 5 mL/kg once daily from 6 to 9 weeks of age. Eight NASH mice were orally administered vehicle supplemented with Telmisartan at a dose of 10 mg/kg once daily from 6 to 9 weeks of age. Frequency: Fecal samples were collected at the 6 weeks of age (before administration) and 9 weeks of age (before sacrifice). Procedure: At 6 weeks of age, fecal samples were collected from each mouse by clean catch method. […] A sterile petri dish was placed on the bench. Gently massage the abdomen, position the bottom of mouse over a fresh petri dish, and collect 1-2 fecal pellets. At sacrifice, fecal samples were aseptically collected from cecum. The tubes with feces were placed on ice immediately. These tubes were snap frozen in liquid nitrogen and stored at -80° C. for shipping. In this analysis, the 16S rRNA sequence data acquired by the next-generation sequencer from the fecal […] was used to perform community analysis using the QIIME2 program for microbial community analysis. The raw read data in FASTQ format output from the next-generation sequencer was trimmed to remove adapter sequences and low QV regions that may be included in the data. Cutadapt was used to remove adapter sequences from DNA sequencing reads. Trimmomatic was used as read trimming tool for Illumina NGS data. The adapter sequence was trimmed using the adapter trimming program “cutadapt” if the Trimming of the region at the end of the read sequence overlapped the corresponding sequence by at least one base (mismatch tolerance: 20%). When reads containing N were present in at least one of Read1 and Read2, both Read1 and Read2 were removed. Trimming of low QV regions was performed on the read data after processing using the QV trimming program “Trimmomatic” under the following conditions. The window of 20 bases is slid from the 5' side, and the area where the average QV is less than 20 is trimmed. After trimming, only the reads with more than 50 bases remaining in both Read1 and Read2 were taken as output. The microbial community analysis based on 16S rRNA sequence was performed on the sequence data trimmed in the previous section using the microbial community analysis program “QIIME2”. The annotation program “sklearn” included in QIIME2 is used to annotate the ASV (OTU) sequences. […]

SMILES: CCCc1nc2c(C)cc(-c3nc4ccccc4n3C)cc2n1Cc1ccc(-c2ccccc2C(=O)O)cc1 [Telmisartan]
- Abundance: Family Methanobacteriaceae, Genus Methanobrevibacter, Species — (pre (baseline), table row r429): 0
- Abundance: Family Lachnospiraceae, Genus Other, Species Other (pre (baseline), table row r431): 12
- Abundance: Family Lachnospiraceae, Genus Dorea, Species — (pre (baseline), table row r432): 0
- Abundance: Family Lachnospiraceae, Genus Dorea, Species — (pre (baseline), table row r433): 7
- Abundance: Family Lachnospiraceae, Genus —, Species — (pre (baseline), table row r434): 11
- Abundance: Family Erysipelotrichaceae, Genus —, Species — (pre (baseline), table row r435): 0
- Abundance: Family Other, Genus Other, Species Other (pre (baseline), table row r437): 0
- Abundance: Family Ruminococcaceae, Genus Ruminococcus, Species — (pre (baseline), table row r438): 0
- Abundance: Family Lachnospiraceae, Genus Other, Species Other (pre (baseline), table row r439): 0
- Abundance: Family Erysipelotrichaceae, Genus Clostridum, Species cocleatum (pre (baseline), table row r440): 0
- Abundance: Family Clostridiaceae, Genus —, Species — (pre (baseline), table row r441): 10
- Abundance: Family S24-7, Genus —, Species — (pre (baseline), table row r442): 0
- Abundance: Family Ruminococcaceae, Genus Oscillospira, Species — (pre (baseline), table row r443): 0
- Abundance: Family Erysipelotrichaceae, Genus —, Species — (pre (baseline), table row r446): 0
- Abundance: Family Streptococcaceae, Genus —, Species — (pre (baseline), table row r447): 0
- Abundance: Family Erysipelotrichaceae, Genus —, Species — (pre (baseline), table row r448): 0
- Abundance: Family Turicibacteraceae, Genus Turicibacter, Species — (pre (baseline), table row r449): 0
- Abundance: Family S24-7, Genus —, Species — (pre (baseline), table row r450): 0
- Abundance: Family Ruminococcaceae, Genus Oscillospira, Species — (pre (baseline), table row r451): 0
- Abundance: Family Lachnospiraceae, Genus —, Species — (pre (baseline), table row r452): 0
- Abundance: Family Erysipelotrichaceae, Genus —, Species — (pre (baseline), table row r454): 0
- Abundance: Family Ruminococcaceae, Genus Ruminococcus, Species — (pre (baseline), table row r455): 0
- Abundance: Family Moraxellaceae, Genus Psychrobacter, Species Other (pre (baseline), table row r456): 0
- Abundance: Family Paenibacillaceae, Genus Other, Species Other (pre (baseline), table row r457): 0
- Abundance: Family Lachnospiraceae, Genus Coprococcus, Species — (pre (baseline), table row r458): 0
- Abundance: Family Bacillaceae, Genus Bacillus, Species — (pre (baseline), table row r459): 0
- Abundance: Family Enterococcaceae, Genus Vagococcus, Species — (pre (baseline), table row r460): 0
- Abundance: Family Lachnospiraceae, Genus —, Species — (pre (baseline), table row r462): 0
- Abundance: Family Ruminococcaceae, Genus Oscillospira, Species — (pre (baseline), table row r466): 0
- Abundance: Family Erysipelotrichaceae, Genus —, Species — (pre (baseline), table row r468): 4
- Abundance: Family Other, Genus Other, Species Other (pre (baseline), table row r469): 0
- Abundance: Family Clostridiaceae, Genus Clostridium, Species Other (pre (baseline), table row r470): 0
- Abundance: Family Ruminococcaceae, Genus —, Species — (pre (baseline), table row r473): 3
- Abundance: Family Deferribacteraceae, Genus Mucispirillum, Species schaedleri (pre (baseline), table row r474): 0
- Abundance: Family Turicibacteraceae, Genus Turicibacter, Species — (pre (baseline), table row r475): 0
- Abundance: Family [Mogibacteriaceae], Genus —, Species — (pre (baseline), table row r478): 0
- Abundance: Family Lachnospiraceae, Genus Dorea, Species longicateria (pre (baseline), table row r480): 2
- Abundance: Family Ruminococcaceae, Genus —, Species — (pre (baseline), table row r481): 0
- Abundance: Family Lachnospiraceae, Genus —, Species — (pre (baseline), table row r482): 0
- Abundance Erysipelotrichaceae/Allobaculum/— (pre, line r8): 6375
- Abundance Turicibacteraceae/Turicibacter/— (pre, line r9): 9408
- Abundance Desulfovibrionaceae/—/— (pre, line r10): 3882
- Abundance Clostridiaceae/Other/Other (pre, line r11): 7143
- Abundance Lactobacillaceae/Lactobacillus/— (pre, line r12): 416
- Abundance Streptococcaceae/Lactococeus/— (pre, line r13): 2239
- Abundance Bacteroidaceae/Bacteroides/— (pre, line r14): 1596
- Abundance [Paraprevotellaceae]/[Prevotella]/— (pre, line r15): 1674
- Abundance —/—/— (pre, line r16): 1552
- Abundance Deferribacteraceae/Mucispirillum/schaedleri (pre, line r17): 4795
- Abundance Bacteroidaceae/Bacteroides/acidifaciens (pre, line r18): 983
- Abundance —/—/— (pre, line r19): 853
- Abundance Verrucomicrobiaceae/Akkermansia/muciniphila (pre, line r20): 2305
- Abundance Rikenellaceae/—/— (pre, line r21): 696
- Abundance Enterobacteriaceae/Other/Other (pre, line r22): 17
- Abundance Lactobacillaceae/Lactobacillus/— (pre, line r23): 883
- Abundance S24-7/—/— (pre, line r24): 623
- Abundance Lachnospiraceae/—/— (pre, line r25): 752
- Abundance Peptostreptocpccaceae/—/— (pre, line r26): 1121
- Abundance Lachnospiraceae/[Ruminococcus]/gnavus (pre, line r27): 2041
- Abundance Lachnospiraceae/Coprococeus/— (pre, line r28): 444
- Abundance Bifidobacteriaceae/Bifidobacterium/pseudolongum (pre, line r29): 1317
- Abundance Enterobacteriaceae/Proteus/— (pre, line r30): 0
- Abundance Lactobacillaceae/Lactobacillus/Other (pre, line r31): 64
- Abundance S24-7/—/— (pre, line r32): 740
- Abundance Porphyromonadaceae/Parabacteroides/distasonis (pre, line r33): 320
- Abundance Clostridiaceae/—/— (pre, line r34): 1242
- Abundance —/—/— (pre, line r35): 420
- Abundance Desulfovibrionaceae/Desulfovibrio/— (pre, line r36): 65
- Abundance S24-7/—/— (pre, line r37): 708
- Abundance Coriobacteriaceae/Adlercreutzia/— (pre, line r38): 625
- Abundance S24-7/—/— (pre, line r39): 480
- Abundance Erysipelotrichaceae/Clostridium/cocleatum (pre, line r40): 319
- Abundance Ruminococcaceae/Ruminococcus/— (pre, line r41): 1164
- Abundance Lachnospiraceae/Other/Other (pre, line r43): 481
- Abundance Lachnospiraceae/[Ruminococcus]/gnavus (pre, line r44): 311
- Abundance Turicibacteraceae/Turicibacter/— (pre, line r45): 586
- Abundance Lachnospiraceae/—/— (pre, line r46): 611
- Abundance Bacteroidaceae/Bacteroides/— (pre, line r47): 460
- Abundance Ruminococcaceae/Oscillospira/— (pre, line r48): 293
- Abundance Lachnospiraceae/Roseburia/— (pre, line r50): 488
- Abundance Lachnospiraceae/—/— (pre, line r51): 338
- Abundance S24-7/—/— (pre, line r52): 305
- Abundance Lachnospiraceae/[Ruminococcus]/gnavus (pre, line r53): 123
- Abundance Lachnospiraceae/Coprococcus/— (pre, line r56): 126
- Abundance S24-7/—/— (pre, line r57): 322
- Abundance S24-7/—/— (pre, line r58): 237
- Abundance Lachnospiraceae/Other/Other (pre, line r60): 562
- Abundance Lachnospiraceae/[Ruminococcus]/gnavus (pre, line r61): 375
- Abundance Erysipelotrichaceae/Allobaculum/— (pre, line r62): 286
- Abundance Desulfovibrionaceae/Desulfovibrio/C21_c20 (pre, line r63): 604
- Abundance S24-7/—/— (pre, line r64): 383
- Abundance Streptococcaceae/Lactococcus/garvieae (pre, line r66): 11
- Abundance Enterobacteriaceae/Proteus/— (pre, line r68): 0
- Abundance Lachnospiraceae/—/— (pre, line r69): 44
- Abundance S24-7/—/— (pre, line r70): 399
- Abundance Lachnospiraceae/[Ruminococcus]/gnavus (pre, line r71): 278
- Abundance Clostridiaceae/Clostridium/Other (pre, line r73): 707
- Abundance Lachnospiraceae/—/— (pre, line r74): 0
- Abundance Clostridiaceae/Other/Other (pre, line r75): 215
- Abundance Clostridiaceae/Other/Other (pre, line r77): 255
- Abundance S24-7/—/— (pre, line r78): 196
- Abundance Lachnospiraceae/[Ruminococcus]/gnavus (pre, line r79): 601
- Abundance Bacteroidaceae/Bacteroides/— (pre, line r80): 170
